We go through 1 substance from patent publication EP2846814B1, “COMPOSITION FOR THE PREVENTION AND TREATMENT OF VIRAL INFECTIONS CAUSED BY RETROVIRUSES” (Pandalis, Georgios, priority 2012, dated 2013).

For the assay, the system named is HIV-1 Lai (subtype B, X4). Put plainly: In vitro testing of antiviral activity in the HeLa-P4 assay (β-Galactosidase reporter, luminescence). The assay is classed as cell-based. The procedure:
• Viruses: HIV-1 Lai (subtype B, X4); titer: 8 x 10^4/ml; 20 µl/batch • Cells: HeLa-P4; 2.5 x 10^4/batch
HeLa-P4 cells (from NIH AIDS Research and Reference Program) are a cell line, which was transfected with genes for the human CD4- and […] receptor and which are therefore infectable with HIV-1 (the CXCR4-receptor is expressed on the cells). For quantification of the HIV infection, the cells carry a reporter gene, i.e. β-Galactosidase gen, which is under control of the HIV-1 promoter. After infection, the Tat-protein of HIV-1 transactivates the reporter gene and the degree of infection can be quantified by measurement of the enzyme activity in the lysate of the cells. An inhibition of HIV-1 infection results in a reduction of the β-Galactosidase activity with respect to the infection with viruses without substance addition. The background is defined by measuring the enzyme activity in cells, to which no virus was added. Since in principle a lower infection may also be based on toxic effects of the substances to the cells, in addition to said assay a cytotoxicity assay is also carried out.
The test substances are prepared by adding 1 mg of each extract/concentrate in an Eppendorf vial and dissolving the sample in 1 ml of RPMI medium. The solution is filtered under sterile conditions and placed in a new Eppendorf vial. As a positive control, the T20-peptide (a known HIV-1 entry inhibitor; Enfuvirtide) is used. Dilution series of the test compounds alone, combinations thereof as well as of T20 in cell culture medium were prepared, wherein the samples have concentrations of 5, 10, 25, and 50 µg/ml for Marrubium vulgare, Cistus incanus and Ribes nigrum and combinations of extracts of Marrubium vulgare and Cistus incanus, and Marrubium vulgare and Ribes nigrum. For Marrubium vulgare, Borago officinalis and combinations of extracts of Marrubium vulgare and Borago officinalis concentrations of 5 and 50 µg/ml were tested. The given concentrations in the combinations relate to the concentration of each single extract, e.g. a concentration of 5 µg/ml means 5 µg/ml of Marrubium vulgare and 5 µg/ml of the extract of the other plant (Cistus incanus, Ribes nigrum, Borago officinalis).
The positive control T20 is used in concentrations of 100 and 200 nM. Each of the substance concentrations was tested in triplicates.
Day 1: Each of the substance dilutions of Marrubium vulgare (5, 10, 25, 50, […]), Ribes nigrum (5, 10, 25, and 50 µg/ml), Cistus incanus (5, 10, 25, and 50 µg/ml) and Borago officinalis (5 and 50 µg/m) is mixed with 20 µl of the HIV-1 Lai virus stock (titer 8x10^4/ml), vortexed, and pre-incubated at 37 °C for 30 minutes. The virus/substance mixture is added to 2.5 x 10^4 HeLa-P4 cells corresponding to an m.o.i. of 0.06, vortexed and incubated for 2 h at 37 °C. Afterwards the supernatant is removed, the cells are washed with medium and 100 µl of fresh medium is added. The cells are incubated for 2 days at 37 °C.
Accordingly, each of the substance dilutions of combinations of Marrubium vulgare and Ribes nigrum (5, 10, 25, and 50 µg/ml), Marrubium vulgare and Cistus incanus (5, 10, 25, and 50 µg/ml) and Marrubium vulgare and Borago officinalis (5 and 50 µg/ml) is mixed with 20 µl of the HIV-1 Lai virus stock (titer 8x10^4/ml), vortexed, and pre-incubated at 37 °C for 30 minutes. The virus/substance mixture is added to 2.5 x 10^4 HeLa-P4 cells, vortexed and incubated for 2 h at 37 °C. Afterwards the supernatant is removed, the cells are washed with medium and 100 µl of fresh medium is added. The cells are incubated for 2 days at 37 °C.
Day 3: The supernatant is removed, the cells are washed with 100 µl of medium and lysed in 50 µl of lysis buffer per each well (2.5 ml glycerol; 1.25 ml MES-Tris, 25 µl 1 M DTT, 250 µl Triton X100, H2O ad 25 ml) for 10 minutes on ice and removed at -80 °C. […]

For the substance Enfuvirtide [T20], where the note is “100 nM”, the “LU (luminescence units) Average” value came out at 16893 LU, the “LU (luminescence units) Trial 1” value turned out to be 23855 LU, the “LU (luminescence units) Trial 2” value was 13888 LU and the “LU (luminescence units) Trial 3” value is reported as 12937 LU. Further, where the note is “200 nM”, the “LU (luminescence units) Average” value is recorded as 8802 LU, the “LU (luminescence units) Trial 1” value is on record as 9407 LU, the “LU (luminescence units) Trial 2” value was found to be 7531 LU and the “LU (luminescence units) Trial 3” value is 9468 LU.
